The source of these data is patent US12479825B2, “Melanocortin subtype-2 receptor (MC2R) antagonists and uses thereof” (Crinetics Pharmaceuticals, Inc., priority 2019, dated 2025).

This assay deals with T1, hMC2 receptor (Homo sapiens, UniProt Q01718).
T1 construct: host or cells: CRE-bla-CHO-K1 cells, crude membrane fraction
Description: hMC2 membrane binding assay ([125I]ACTH (1-39) Tyr23, SPA). To be noted: crude hMC2R membranes from CRE-bla-CHO-K1 cells expressing hMC2 receptor and hMRAP; 0.2 nM [125I]ACTH (1-39) Tyr23; 1.5 hours at room temperature; read-out: MC2R binding potency. The protocol: Crude membrane fractions are prepared from CRE-bla-CHO-K1 cells stably expressing hMC2 receptor and hMRAP accessory protein (Thermo Fisher). The cells are grown to 85-100% confluence on standard tissue culture dishes in GlutaMax DMEM growth media (Gibco) with following additives: 10% dialyzed FBS (Gemini), 0.1 mM NEAA (Gibco), 25 mM HEPES (Gibco), 5 μg/mL blasticidin (Goldbio), 100 μg/mL zeocin (Invitrogen), 600 μg/mL hygromycin (Goldbio). To prepare membranes, cells are scraped and collected in 1× Dulbecco's phosphate buffered saline (Corning) and then pelleted at 1000 RPM's. The cell pellet is reconstituted in membrane preparation buffer (20 mM HEPES, 6 mM MgCl2 and 1 mM EGTA, protease inhibitor tablets (Pierce) adjusted to pH 7.4), homogenized using a dounce homogenizer, and the resulting membrane fraction is pelleted by centrifugation at 12,000 RPM's. The membrane pellet is resuspended in membrane preparation buffer, snap freezed and stored at −80° C. for later use.
The hMC2 membrane binding assay utilizes the following components: radiolabel [^125I]ACTH (1-39) Tyr23 (PerkinElmer), wheat germ agglutinin coated PVT SPA beads (PerkinElmer), crude hMC2R membranes, and compounds. Briefly hMC2R membranes are incubated with SPA beads in binding assay buffer (50 mM HEPES, 5 mM MgCl2, 1 mM CaCl2, 0.2% BSA, protease inhibitor tablets (Pierce) adjusted to pH7.4) prior to assay initiation. A dose response of compound (the final concentration of compound is typically 0-10,000 nM), SPA membranes, and [^125I]ACTH (1-39) Tyr23 at a final concentration of 0.2 nM is plated in a 96-well assay plate and allowed to incubate 1.5 hours at room temperature. Assay plates are read using a Top Count NXT and Ki values for compounds are determined using a GraphPad Prism 6 non-linear regression analysis.

T1 sequence (Q01718 whole entry): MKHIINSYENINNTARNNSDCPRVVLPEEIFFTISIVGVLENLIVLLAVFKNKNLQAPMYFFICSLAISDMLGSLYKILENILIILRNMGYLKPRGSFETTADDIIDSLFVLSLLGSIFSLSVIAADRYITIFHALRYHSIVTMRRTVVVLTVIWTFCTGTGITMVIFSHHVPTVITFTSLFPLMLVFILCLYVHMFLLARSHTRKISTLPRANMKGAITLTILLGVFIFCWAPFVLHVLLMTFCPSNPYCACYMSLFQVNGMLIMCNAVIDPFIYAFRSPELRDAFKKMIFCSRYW
T1 sequence (Q8TCY5 whole entry partner): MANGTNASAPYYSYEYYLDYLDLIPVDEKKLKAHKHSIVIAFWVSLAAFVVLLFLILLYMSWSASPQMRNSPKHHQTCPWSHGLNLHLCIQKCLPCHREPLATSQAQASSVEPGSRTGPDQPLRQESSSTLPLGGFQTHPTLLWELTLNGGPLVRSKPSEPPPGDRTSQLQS

Regarding `CCOc1ncccc1-c1ccc(N2CC[C@@H](Oc3ccc(C(F)(F)F)cc3C#N)C[C@H]2CC)c(C(=O)N[C@@H]2CN3CCC2CC3)n1` (racemic) [2-20, N-[(3S)-1-azabicyclo[2.2.2]octan-3-yl]-5-[cis*-4-[2-cyano-4-(trifluoromethyl)phenoxy]-2-ethylpiperidin-1-yl]-2′-ethoxy-[2,3′-bipyridine]-6-carboxamide], the Ki is below 10 nM.

Consider `CCOc1ccccc1-c1ccc(N2CC[C@@H](Oc3ccc(C(F)(F)F)nc3C#N)C[C@H]2C)c(C(=O)N[C@@H]2CCN(C)C2)n1` (racemic) [2-23, 3-(cis*-4-{[2-cyano-6-(trifluoromethyl)pyridin-3-yl]oxy}-2-methylpiperidin-1-yl)-6-(2-ethoxyphenyl)-N-[(3R)-1-methylpyrrolidin-3-yl]pyridine-2-carboxamide], for which the Ki was below 10 nM.

Consider `CCOc1ncccc1-c1ccc(N2CC[C@H](Sc3ccccc3C(F)(F)F)C[C@H]2CC)c(C(=O)N[C@@H]2CCN(C)C2)n1` (racemic) [5-1, rac-2′-ethoxy-5-[(2R,4S)-2-ethyl-4-{[2-(trifluoromethyl)phenyl]sulfanyl}piperidin-1-yl]-N-[(3R)-1-methylpyrrolidin-3-yl]-[2,3′-bipyridine]-6-carboxamide], for which the Ki was below 10 nM. Then `CCOc1ncccc1-c1ccc(N2CC[C@H](S(=O)(=O)c3ccccc3C(F)(F)F)C[C@H]2CC)c(C(=O)N[C@@H]2CCN(C)C2)n1` (racemic) [5-2, rac-2′-ethoxy-5-[(2R,4S)-2-ethyl-4-[2-(trifluoromethyl)benzenesulfonyl]piperidin-1-yl]-N-[(3R)-1-methylpyrrolidin-3-yl]-[2,3′-bipyridine]-6-carboxamide], with 100 to 1000 nM; and `CCOc1ncccc1-c1ccc(N2CC[C@@H](Oc3ccc(Cl)cc3C(F)(F)F)C[C@H]2CC)c(C(=O)N[C@@H]2CCN(C)C2)n1` (single isomer, unassigned) [2-9, 5-[(2R,4R)*-4-[4-chloro-2-(trifluoromethyl)phenoxy]-2-ethylpiperidin-1-yl]-2′-ethoxy-N-[(3R)-1-methylpyrrolidin-3-yl]-[2,3′-bipyridine]-6-carboxamide], with below 10 nM. As for `CCOc1ncccc1-c1ccc(N2CC[C@H](Oc3ccc(Cl)cc3C(F)(F)F)C[C@@H]2CC)c(C(=O)N[C@@H]2CCN(C)C2)n1` (single isomer, unassigned) [2-10, 5-[(2S,4S)*-4-[4-chloro-2-(trifluoromethyl)phenoxy]-2-ethylpiperidin-1-yl]-2′-ethoxy-N-[(3R)-1-methylpyrrolidin-3-yl]-[2,3′-bipyridine]-6-carboxamide], the Ki was 10 to 100 nM.

On to `CCOc1ncccc1-c1ccc(N2CC[C@@H](Oc3ccc(C(F)(F)F)cc3C#N)C[C@H]2CC)c(C(=O)N[C@@H]2CCN(C)C2)n1` (single isomer, unassigned) [2-11], for which the Ki was below 10 nM. For the compound `CCOc1ncccc1-c1ccc(N2CC[C@H](Oc3ccc(C(F)(F)F)cc3C#N)C[C@@H]2CC)c(C(=O)N[C@@H]2CCN(C)C2)n1` (single isomer, unassigned) [2-12], the Ki lay in the range of 10 to 100 nM. As to `CCOc1ncccc1-c1ccc(N2CC[C@@H](Oc3ccc(C(F)(F)F)nc3C#N)C[C@H]2CC)c(C(=O)N[C@@H]2CCN(C)C2)n1` (single isomer, unassigned) [2-18], the Ki is below 10 nM. Take `CCOc1ncccc1-c1ccc(N2CC[C@@H](Oc3ccc(Cl)cc3C#N)C[C@H]2CC)c(C(=O)N[C@@H]2CCN(C)C2)n1` (single isomer, unassigned) [2-21]: the Ki is below 10 nM. Regarding `CCOc1ncccc1-c1ccc(N2CC[C@@H](Oc3ccc(C(F)(F)F)nc3C#N)C[C@H]2CC)c(C(=O)N[C@H]2CCN(C)C2)n1` (single isomer, unassigned) [2-22], the Ki was below 10 nM. Regarding `CCOc1ncccc1-c1ccc(N2CCN(C(=O)C3(C(F)(F)F)CCCC3)C[C@H]2CC)c(O[C@@H]2CCN(C)C2)n1` [1-3, 2′-ethoxy-5-[(2R)-2-ethyl-4-[1-(trifluoromethyl)cyclopentanecarbonyl]piperazin-1-yl]-6-{[(3R)-1-methylpyrrolidin-3-yl]oxy}-2,3′-bipyridine], the Ki lay in the range of 10 to 100 nM. With `CCOc1ncccc1-c1ccc(N2CCN(C(=O)N3CCC[C@H]3C(F)(F)F)C[C@H]2CC)c(O[C@@H]2CCN(C)C2)n1` [1-4, 2′-ethoxy-5-[(2R)-2-ethyl-4-[(2S)-2-(trifluoromethyl)pyrrolidine-1-carbonyl]piperazin-1-yl]-6-{[(3R)-1-methylpyrrolidin-3-yl]oxy}-2,3′-bipyridine], the Ki is 10 to 100 nM. For `CCOc1ccc(C(=O)N2CCN(c3ccc(-c4cccnc4OCC)nc3O[C@@H]3CCNC3)[C@H](CC)C2)c(C(F)(F)F)n1` [1-5, 2′-ethoxy-5-[(2R)-4-[6-ethoxy-2-(trifluoromethyl)pyridine-3-carbonyl]-2-ethylpiperazin-1-yl]-6-[(3R)-pyrrolidin-3-yloxy]-2,3′-bipyridine] the value was below 10 nM; for `CCOc1ncccc1-c1ccc(N2CCN(C(=O)c3ccc(F)cc3C(F)F)C[C@H]2CC)c(O[C@@H]2CCNC2)n1` [1-6, 5-[(2R)-4-[2-(difluoromethyl)-4-fluorobenzoyl]-2-ethylpiperazin-1-yl]-2′-ethoxy-6-[(3R)-pyrrolidin-3-yloxy]-2,3′-bipyridine], below 10 nM.

On to `CCOc1ncccc1-c1ccc(N2CCN(C(=O)c3ccc(Cl)cc3C(F)(F)F)C[C@H]2CC)c(O[C@@H]2CCNC2)n1` [1-7, 5-[(2R)-4-[4-chloro-2-(trifluoromethyl)benzoyl]-2-ethylpiperazin-1-yl]-2′-ethoxy-6-[(3R)-pyrrolidin-3-yloxy]-2,3′-bipyridine], for which the Ki was below 10 nM. As to `CCOc1ncccc1-c1ccc(N2CCN(C(=O)N3CCC[C@H]3C(F)(F)F)C[C@H]2CC)c(O[C@@H]2CCNC2)n1` [1-8, 2′-ethoxy-5-[(2R)-2-ethyl-4-[(2S)-2-(trifluoromethyl)pyrrolidine-1-carbonyl]piperazin-1-yl]-6-[(3R)-pyrrolidin-3-yloxy]-2,3′-bipyridine], the Ki was below 10 nM. On to `CCOc1ccc(C(=O)N2CCN(c3ccc(-c4cccnc4OCC)nc3OCCNC)[C@H](CC)C2)c(C(F)(F)F)n1` [1-9, [2-({2′-ethoxy-5-[(2R)-4-[6-ethoxy-2-(trifluoromethyl)pyridine-3-carbonyl]-2-ethylpiperazin-1-yl]-[2,3′-bipyridin]-6-yl}oxy)ethyl](methyl)amine], for which the Ki is below 10 nM.

As to `CCOc1ncccc1-c1ccc(N2CCN(C(=O)c3ccc(F)cc3C(F)F)C[C@H]2CC)c(OCCNC)n1` [1-10, [2-({5-[(2R)-4-[2-(difluoromethyl)-4-fluorobenzoyl]-2-ethylpiperazin-1-yl]-2′-ethoxy-[2,3′-bipyridin]-6-yl}oxy)ethyl](methyl)amine], the Ki was below 10 nM. Take `CCOc1ncccc1-c1ccc(N2CCN(C(=O)N3CCC[C@H]3C(F)(F)F)C[C@H]2CC)c(OCCNC)n1` [1-11, [2-({2′-ethoxy-5-[(2R)-2-ethyl-4-[(2S)-2-(trifluoromethyl)pyrrolidine-1-carbonyl]piperazin-1-yl]-[2,3′-bipyridin]-6-yl}oxy)ethyl](methyl)amine]: the Ki was below 10 nM. For `CCOc1ccc(C(=O)N2CCN(c3ccc(-c4cccnc4OCC)nc3OCCN)[C@H](CC)C2)c(C(F)(F)F)n1` [1-12, 2-({2′-ethoxy-5-[(2R)-4-[6-ethoxy-2-(trifluoromethyl)pyridine-3-carbonyl]-2-ethylpiperazin-1-yl]-[2,3′-bipyridin]-6-yl}oxy)ethan-1-amine] the value was below 10 nM.
